{"source": "patent US20250296959A1", "about": "“B7-H3 TARGETING PEPTIDES AND CONSTRUCTS THEREOF” (Mariana Oncology Inc., priority 2024, published 2025)", "note": "Starred links: 1 amine or outer side, 2 acyl side, 3 side chain; linkers in the order of their positions; H or OH if unused. Positions of bridges follow the written chain, without caps; N, C: chain ends. Non-standard residues stand in square brackets, D forms with d. Residues, ends and D or L forms follow the SMILES beside them. Groups on a side chain read outwards from the residue. *: point of attachment. Ala(piperidin-4-yl) = O=C([C@H](CC1CCN([*:3])CC1)N[*:1])[*:2]; DOTA = O=C(O)CN1CCN(CC(=O)O)CCN(CC(=O)*)CCN(CC(=O)O)CC1; Trp(4-Me) = Cc1cccc2[nH]cc(C[C@H](N)C(=O)O)c12; Trp(5-F) = N[C@@H](Cc1c[nH]c2ccc(F)cc12)C(=O)O; Trp(1-Me) = Cn1cc(C[C@H](N)C(=O)O)c2ccccc21; γGlu = O=C(O)[C@H](CCC(=O)[*:2])N[*:1]; 1Nal = N[C@@H](Cc1cccc2ccccc12)C(=O)O; Ala(4-THP) = N[C@@H](CC1CCOCC1)C(=O)O; Val(3-OH) = CC(C)(O)[C@H](N)C(=O)O; aIle = CC[C@@H](C)[C@H](N)C(=O)O; 4Pal = N[C@@H](Cc1ccncc1)C(=O)O; Cha = N[C@@H](CC1CCCCC1)C(=O)O; Chg = N[C@H](C(=O)O)C1CCCCC1; Tle = CC(C)(C)[C@H](N)C(=O)O; hLeu = CC(C)CC[C@H](N)C(=O)O; NMeC = CN[C@@H](CS)C(=O)O; NMeS = CN[C@@H](CO)C(=O)O; Nle = CCCC[C@H](N)C(=O)O", "data": [{"target": "T1, human 4lg B7-H3 (Homo sapiens, UniProt Q5ZPR3)", "T1 sequence (Q5ZPR3 29-534)": "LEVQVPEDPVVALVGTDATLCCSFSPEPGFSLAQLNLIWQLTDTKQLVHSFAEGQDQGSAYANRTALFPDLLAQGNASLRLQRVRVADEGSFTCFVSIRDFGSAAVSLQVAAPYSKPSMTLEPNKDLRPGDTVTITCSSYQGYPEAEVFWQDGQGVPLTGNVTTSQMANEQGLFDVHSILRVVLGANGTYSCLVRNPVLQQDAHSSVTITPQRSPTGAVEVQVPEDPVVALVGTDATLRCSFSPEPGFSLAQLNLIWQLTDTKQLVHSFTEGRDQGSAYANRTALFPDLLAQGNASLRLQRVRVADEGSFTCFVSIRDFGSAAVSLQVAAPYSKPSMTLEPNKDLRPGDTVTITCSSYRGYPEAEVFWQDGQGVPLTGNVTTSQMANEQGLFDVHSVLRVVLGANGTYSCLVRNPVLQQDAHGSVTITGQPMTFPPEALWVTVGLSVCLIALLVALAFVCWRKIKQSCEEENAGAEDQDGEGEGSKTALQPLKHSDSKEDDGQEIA", "assay": "Affinity determination by surface plasmon resonance (SPR) to 4Ig B7-H3", "settings": "SPR KD—25° C., 4Ig B7-H3; 25° C. flow cell temperature", "units": {"Kd": "nM"}, "values": [{"smiles": "CCCC[C@H](NC(C)=O)C(=O)N[C@@H](Cc1ccc(O)cc1)C(=O)N[C@H]1CSSC[C@@H](C(=O)N[C@@H](Cc2c[nH]c3ccccc23)C(=O)N[C@@H](Cc2ccccc2)C(=O)N[C@H](C(=O)N[C@H](CCCCNC(=O)CN2CCN(CC(=O)O)CCN(CC(=O)O)CCN(CC(=O)O)CC2)C(N)=O)[C@@H](C)O)NC(=O)[C@H](Cc2ccc(O)cc2)NC(=O)[C@H](C2CCCCC2)NC(=O)[C@H](CC(=O)O)NC(=O)[C@H](Cc2ccc(O)cc2)NC(=O)[C@H](CCCCN)NC(=O)CNC(=O)[C@H](C(C)C)NC1=O", "note": "[compound 55, Ac-Nle-Y-C-V-G-K-Y-D-ChG-Y-C-W-F-Thr-dLys(DOTA)-CONH2] (Ac-[Nle]YCVGKYD[Chg]YCWFT[dK](DOTA)-NH2; disulfide 3-11)", "Kd": "1 to 10"}, {"smiles": "CCCC[C@H](NC(C)=O)C(=O)N[C@@H](Cc1ccc(O)cc1)C(=O)N[C@H]1CSSC[C@@H](C(=O)N[C@@H](Cc2cn(C)c3ccccc23)C(=O)N[C@@H](Cc2ccccc2)C(=O)N[C@H](C(=O)N[C@H](CCCCNC(=O)CN2CCN(CC(=O)O)CCN(CC(=O)O)CCN(CC(=O)O)CC2)C(N)=O)[C@@H](C)O)NC(=O)[C@H](Cc2ccc(O)cc2)NC(=O)[C@H](C(C)C)NC(=O)[C@H](CC(=O)O)NC(=O)[C@H](Cc2ccc(O)cc2)NC(=O)[C@H](CCCCN)NC(=O)CNC(=O)[C@H](C(C)C)NC1=O", "note": "[compound 132, Ac-Nle-Y-C-V-G-K-Y-D-V-Y-C-Trp(Me)-F-Thr-dLys(DOTA)-CONH2] (Ac-[Nle]YCVGKYDVYC[Trp(1-Me)]FT[dK](DOTA)-NH2; disulfide 3-11)", "Kd": "1 to 10"}, {"smiles": "CC(=O)N[C@@H](CCC(C)C)C(=O)N[C@@H](Cc1ccc(O)cc1)C(=O)N[C@H]1CSSC[C@@H](C(=O)N[C@@H](Cc2cccc3ccccc23)C(=O)N[C@@H](Cc2ccccc2)C(=O)N2CCC[C@H]2C(=O)N[C@H](CCCCNC(=O)CC[C@H](NC(=O)CC[C@H](NC(=O)CC[C@H](NC(=O)CN2CCN(CC(=O)O)CCN(CC(=O)O)CCN(CC(=O)O)CC2)C(=O)O)C(=O)O)C(=O)O)C(N)=O)NC(=O)[C@H](Cc2ccc(O)cc2)NC(=O)[C@H](C(C)C)NC(=O)[C@H](CC(=O)O)NC(=O)[C@H](CC2CCCCC2)NC(=O)[C@H](CC2CCNCC2)NC(=O)CNC(=O)[C@H](C(C)(C)C)NC1=O", "note": "[compound 278, Ac-hLeu-Y-C-Tbg-G-PipAla-CHA-D-V-Y-C-1Nal-F-Pro-dLys(gE-gE-DOTA)-CONH2] (Ac-[hLeu]YC[Tle]G[Ala(piperidin-4-yl)][Cha]DVYC[1Nal]FP[dK]([γGlu-γGlu-γGlu-DOTA])-NH2; disulfide 3-11)", "Kd": "1 to 10"}, {"smiles": "CCCC[C@@H]1NC(=O)[C@H](C(C)C)NC(=O)[C@H](CC(=O)O)NC(=O)[C@H](Cc2ccncc2)NC(=O)[C@H](CCCCN)NC(=O)CNC(=O)[C@H](C(C)(C)C)NC(=O)[C@@H](NC(=O)[C@H](Cc2ccc(O)cc2)NC(=O)[C@H](CCC(C)C)NC(C)=O)CSSC[C@@H](C(=O)N[C@@H](Cc2cccc3ccccc23)C(=O)N[C@@H](Cc2ccccc2)C(=O)N(C)[C@@H](CO)C(=O)N[C@H](CCCCNC(=O)CN2CCN(CC(=O)O)CCN(CC(=O)O)CCN(CC(=O)O)CC2)C(N)=O)NC1=O", "note": "[compound 225, Ac-hLeu-Y-C-Tbg-G-K-4PyA-D-V-Nle-C-1Nal-F-NMeSer-dLys(DOTA)-CONH2] (Ac-[hLeu]YC[Tle]GK[4Pal]DV[Nle]C[1Nal]F[NMeS][dK](DOTA)-NH2; disulfide 3-11)", "Kd": "10 to 100"}, {"smiles": "CC(=O)N[C@@H](CCC(C)C)C(=O)N[C@@H](Cc1ccc(O)cc1)C(=O)N[C@H]1CSSC[C@@H](C(=O)N[C@@H](Cc2c[nH]c3ccc(F)cc23)C(=O)N[C@@H](Cc2ccccc2)C(=O)N(C)[C@@H](CO)C(N)=O)NC(=O)[C@H](Cc2ccc(O)cc2)NC(=O)[C@H](C(C)C)NC(=O)[C@H](CC(=O)O)NC(=O)[C@H](CC2CCCCC2)NC(=O)[C@H](CCCCNC(=O)CN2CCN(CC(=O)O)CCN(CC(=O)O)CCN(CC(=O)O)CC2)NC(=O)CNC(=O)[C@H](C(C)C)NC1=O", "note": "[compound 233, Ac-hLeu-Y-C-V-G-Lys(DOTA)-CHA-D-V-Y-C-5FW-F-NMeSer-CONH2] (Ac-[hLeu]YCVGK(DOTA)[Cha]DVYC[Trp(5-F)]F[NMeS]-NH2; disulfide 3-11)", "Kd": "10 to 100"}, {"smiles": "CC(=O)N[C@@H](CCC(C)C)C(=O)N[C@@H](Cc1ccc(O)cc1)C(=O)N(C)[C@H]1CSSC[C@@H](C(=O)N[C@@H](Cc2c[nH]c3ccc(F)cc23)C(=O)N[C@@H](Cc2ccccc2)C(=O)N[C@H](C(=O)N[C@H](CCCCNC(=O)CN2CCN(CC(=O)O)CCN(CC(=O)O)CCN(CC(=O)O)CC2)C(N)=O)[C@@H](C)O)NC(=O)[C@H](Cc2ccc(O)cc2)NC(=O)[C@H](C(C)C)NC(=O)[C@H](CC(=O)O)NC(=O)[C@H](Cc2ccc(O)cc2)NC(=O)[C@H](CCCCN)NC(=O)CNC(=O)[C@H](C(C)C)NC1=O", "note": "[compound 237, Ac-hLeu-Y-NMeCys-V-G-K-Y-D-V-Y-C-5FW-F-Thr-dLys(DOTA)-CONH2] (Ac-[hLeu]Y[NMeC]VGKYDVYC[Trp(5-F)]FT[dK](DOTA)-NH2; disulfide 3-11)", "Kd": "1 to 10"}, {"smiles": "CC[C@@H](C)[C@@H]1NC(=O)[C@@H](NC(=O)[C@H](Cc2ccc(O)cc2)NC(=O)[C@H](CCC(C)C)NC(C)=O)CSSC[C@@H](C(=O)N[C@@H](Cc2c[nH]c3ccccc23)C(=O)N[C@@H](Cc2ccccc2)C(=O)N[C@H](C(=O)N[C@H](CCCCNC(=O)CN2CCN(CC(=O)O)CCN(CC(=O)O)CCN(CC(=O)O)CC2)C(N)=O)[C@@H](C)O)NC(=O)[C@H](Cc2ccc(O)cc2)NC(=O)[C@H](C(C)C)NC(=O)[C@H](CC(=O)O)NC(=O)[C@H](Cc2ccc(O)cc2)NC(=O)[C@H](CCCCN)NC(=O)CNC1=O", "note": "[compound 121, Ac-hLeu-Y-C-allolle-G-K-Y-D-V-Y-C-W-F-Thr-dLys(DOTA)-CONH2] (Ac-[hLeu]YC[aIle]GKYDVYCWFT[dK](DOTA)-NH2; disulfide 3-11)", "Kd": "1 to 10"}]}, {"target": "T1, human 4lg B7-H3", "assay": "Affinity determination by surface plasmon resonance (SPR) to 4Ig B7-H3", "settings": "SPR KD—37° C., 4Ig B7-H3; 37° C. flow cell temperature", "units": {"Kd": "nM"}, "values": [{"smiles": "CCCC[C@H](NC(=O)[C@H](Cc1c[nH]c2ccc(F)cc12)NC(=O)[C@@H]1CSSC[C@H](NC(=O)[C@H](Cc2ccc(O)cc2)NC(=O)[C@H](CCC(C)C)NC(C)=O)C(=O)N[C@@H](C(C)(C)C)C(=O)NCC(=O)N[C@@H](CCCCNC(=O)CN2CCN(CC(=O)O)CCN(CC(=O)O)CCN(CC(=O)O)CC2)C(=O)N[C@@H](CC2CCOCC2)C(=O)N[C@@H](CC(=O)O)C(=O)N[C@@H](C(C)C)C(=O)N[C@@H](Cc2ccc(O)cc2)C(=O)N1)C(=O)N[C@H](C(N)=O)C(C)(C)O", "note": "[compound 336, Ac-hLeu-Y-C-Tbg-G-Lys(DOTA)-ThpA-D-V-Y-C-5FW-Nle-hydroxyVal-CONH2] (Ac-[hLeu]YC[Tle]GK(DOTA)[Ala(4-THP)]DVYC[Trp(5-F)][Nle][Val(3-OH)]-NH2; disulfide 3-11)", "Kd": "10 to 100"}, {"smiles": "CC(=O)N[C@@H](CCC(C)C)C(=O)N[C@@H](Cc1ccc(O)cc1)C(=O)N[C@H]1CSSC[C@@H](C(=O)N[C@@H](Cc2c[nH]c3ccc(F)cc23)C(=O)N[C@@H](Cc2ccccc2)C(=O)N[C@H](C(=O)N[C@H](CCCCNC(=O)CN2CCN(CC(=O)O)CCN(CC(=O)O)CCN(CC(=O)O)CC2)C(=O)O)C(C)(C)O)NC(=O)[C@H](Cc2ccc(O)cc2)NC(=O)[C@H](CO)NC(=O)[C@H](CC(=O)O)NC(=O)[C@H](CC2CCOCC2)NC(=O)[C@H](CCCCN)NC(=O)CNC(=O)[C@H](C(C)(C)C)NC1=O", "note": "[compound 378, Ac-hLeu-Y-C-Tbg-G-K-ThpA-D-Ser-Y-C-5FW-F-hydroxyVal-dLys(DOTA)-COOH] (Ac-[hLeu]YC[Tle]GK[Ala(4-THP)]DSYC[Trp(5-F)]F[Val(3-OH)][dK](DOTA)-OH; disulfide 3-11)", "Kd": "100 to 300"}, {"smiles": "CC(=O)N[C@@H](CCC(C)C)C(=O)N[C@@H](Cc1ccc(O)cc1)C(=O)N[C@H]1CSSC[C@@H](C(=O)N[C@@H](Cc2c[nH]c3ccc(F)cc23)C(=O)N[C@@H](Cc2ccccc2)C(=O)N[C@H](C(=O)N[C@H](CCC(=O)O)C(N)=O)C(C)(C)O)NC(=O)[C@H](Cc2ccc(O)cc2)NC(=O)[C@H](C(C)C)NC(=O)[C@H](CC(=O)O)NC(=O)[C@H](CC2CCN(C(=O)CC[C@H](NC(=O)CN3CCN(CC(=O)O)CCN(CC(=O)O)CCN(CC(=O)O)CC3)C(=O)O)CC2)NC(=O)[C@H](CC2CCNCC2)NC(=O)CNC(=O)[C@H](C(C)(C)C)NC1=O", "note": "[compound 459, Ac-hLeu-Y-C-Tbg-G-PipAla-Pip(gE-DOTA)Ala-D-V-Y-C-5FW-F-hydroxyVal-dGlu-CONH2] (Ac-[hLeu]YC[Tle]G[Ala(piperidin-4-yl)][Ala(piperidin-4-yl)]([γGlu-DOTA])DVYC[Trp(5-F)]F[Val(3-OH)][dE]-NH2; disulfide 3-11)", "Kd": "< 1"}, {"smiles": "CC(=O)N[C@@H](CCC(C)C)C(=O)N[C@@H](Cc1ccc(O)cc1)C(=O)N[C@H]1CSSC[C@@H](C(=O)N[C@@H](Cc2c[nH]c3cccc(C)c23)C(=O)N[C@@H](Cc2ccccc2)C(=O)N[C@H](C(=O)N[C@H](CCCCNC(=O)CN2CCN(CC(=O)O)CCN(CC(=O)O)CCN(CC(=O)O)CC2)C(=O)O)C(C)(C)O)NC(=O)[C@H](Cc2ccc(O)cc2)NC(=O)[C@H](C(C)C)NC(=O)[C@H](CC(=O)O)NC(=O)[C@H](CC2CCOCC2)NC(=O)[C@H](CC2CCNCC2)NC(=O)CNC(=O)[C@H](C(C)(C)C)NC1=O", "note": "[compound 473, Ac-hLeu-Y-C-Tbg-G-PipAla-ThpA-D-V-Y-C-4MeW-F-hydroxyVal-dLys(DOTA)-COOH] (Ac-[hLeu]YC[Tle]G[Ala(piperidin-4-yl)][Ala(4-THP)]DVYC[Trp(4-Me)]F[Val(3-OH)][dK](DOTA)-OH; disulfide 3-11)", "Kd": "1 to 10"}]}]}
